Results reported in ChEMBL document CHEMBL1201862, “PubChem BioAssay data set” (2004).
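Dose response: 5 concentrations. Exposure: 48 h. Format: 96-well plates. Endpoint: linear interpolation; highest concentration if not reached. Abbreviation: GI50, concentration required for 50% inhibition of growth.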 The source made the active and inactive calls. Cut-off read from the data, not from the text of the source: active = GI50 up to about 1.1 µM and inactive = higher. Numbered stars: 1 amine (or outer) side, 2 acyl side, 3 side chain; on linkers, the order of the positions; unused ones are H or OH. Bridge positions count the residues as written; N and C are the ends. Square brackets hold non-standard residues; d marks the D form. Peptide text beside a SMILES is read from it. I, II: the chains in the order shown. Actinocin(9to1) = Cc1c2oc3c(C)ccc(C(=O)[*:1])c3nc-2c(C(=O)[*:2])c(N)c1=O; X48 = O=C1CC(C(=O)[*:2])N([*:1])C1; NMeV = CN[CH](C(=O)O)C(C)C; Sar = CNCC(=O)O

How the values were obtained:
Experiment in all cases: growth of human tumour cells (NCI), 48 h
ACHN = system: ACHN
SF-295 = system: SF-295
MCF7 = system: MCF7
U-251 = system: U-251
SN12C = system: SN12C
SK-MEL-5 = system: SK-MEL-5
DU-145 = system: DU-145
NCI-H23 = system: NCI-H23
MOLT-4 = system: MOLT-4
HCT-15 = system: HCT-15
OVCAR-4 = system: OVCAR-4
OVCAR-3 = system: OVCAR-3
A498 = system: A498
HOP-62 = system: HOP-62
UO-31 = system: UO-31
Malme-3M = system: Malme-3M
CAKI-1 = system: CAKI-1
IGROV-1 = system: IGROV-1
RXF 393 = system: RXF 393
TK-10 = system: TK-10

SMILES | GI50 (ACHN) | GI50 (SF-295) | GI50 (MCF7) | GI50 (U-251) | GI50 (SN12C) | GI50 (SK-MEL-5) | GI50 (DU-145) | GI50 (NCI-H23) | GI50 (MOLT-4) | GI50 (HCT-15) [µM] | GI50 (OVCAR-4) | GI50 (OVCAR-3) | GI50 (A498) | GI50 (HOP-62) | GI50 (UO-31) | GI50 (Malme-3M) | GI50 (CAKI-1) | GI50 (IGROV-1) | GI50 (RXF 393) | GI50 (TK-10)
O=C(N/N=C/c1ccc([N+](=O)[O-])cc1)c1cccc2nc3ccccc3nc12 | > 38.5 µM (inactive) | 78.2 µM (inactive) | > 100 µM (inactive) | 41.5 µM (inactive) | > 100 µM (inactive) | 2.07 µM (inactive) | 65 µM (inactive) | 12.2 µM (inactive) | > 36.8 µM (inactive) | > 55.7 | > 100 µM (inactive) | > 100 µM (inactive) | > 100 µM (inactive) | 1.74 µM (inactive) | > 71.4 µM (inactive) | > 100 µM (inactive) | > 100 µM (inactive) | > 100 µM (inactive) | 33.3 µM (inactive) | > 38 µM (inactive)
COc1ccc(/N=N/c2ccc3oc(=O)c(C(=O)Nc4ccc(Cl)cc4)cc3c2)cc1 | > 10 µM (inactive) | > 10 µM (inactive) | 3.17 µM (inactive) | 5.4 µM (inactive) | > 10 µM (inactive) | > 10 µM (inactive) | > 10 µM (inactive) | 6.38 µM (inactive) | 7.46 µM (inactive) | 0.67 | > 10 µM (inactive) | 7.28 µM (inactive) | > 10 µM (inactive) | > 10 µM (inactive) | 2.24 µM (inactive) | > 10 µM (inactive) | > 10 µM (inactive) | 3.52 µM (inactive) | > 10 µM (inactive) | > 10 µM (inactive)
CC1(C)OC[C@@H](C[C@H](O)COCc2ccccc2)O1 | > 100 µM (inactive) | > 100 µM (inactive) | > 100 µM (inactive) | > 100 µM (inactive) | > 100 µM (inactive) | > 100 µM (inactive) | > 100 µM (inactive) | > 100 µM (inactive) | > 100 µM (inactive) | > 100 | > 100 µM (inactive) | > 100 µM (inactive) | > 100 µM (inactive) | > 100 µM (inactive) | > 100 µM (inactive) | > 100 µM (inactive) | > 100 µM (inactive) | > 100 µM (inactive) | > 100 µM (inactive) | > 100 µM (inactive)
CCn1c(SCC(=O)NNC(=S)Nc2ccc(Cl)cc2)nc2ccccc2c1=O | 47.9 µM (inactive) | 41.9 µM (inactive) | 56.2 µM (inactive) | 46.9 µM (inactive) | 47.5 µM (inactive) | > 100 µM (inactive) | 55.6 µM (inactive) | 45.3 µM (inactive) | 30.8 µM (inactive) | 38.5 | 40 µM (inactive) | 82 µM (inactive) | 46.9 µM (inactive) | 79.1 µM (inactive) | 32 µM (inactive) | 42.2 µM (inactive) | 43.9 µM (inactive) | > 100 µM (inactive) | 26.2 µM (inactive) | 37.3 µM (inactive)
O=C1C=C(Nc2ccc(Br)cc2)c2ccccc2/C1=N/O | 7.31 µM (inactive) | 1.54 µM (inactive) | 4.16 µM (inactive) | 4.93 µM (inactive) | 10.6 µM (inactive) | 0.989 µM (active) | 1.77 µM (inactive) | 1.28 µM (inactive) | 11.7 µM (inactive) | 3.14 | 6.84 µM (inactive) | 7.35 µM (inactive) | 5.81 µM (inactive) | 2.78 µM (inactive) | 6.64 µM (inactive) | 10.2 µM (inactive) | 6.52 µM (inactive) | 32.6 µM (inactive) | 16.4 µM (inactive) | 9.1 µM (inactive)
C=C1C(=O)OC2CC1C(OC(=O)/C=C/c1ccccc1)C/C(C)=C/CC/C(C)=C/CCC2(C)O (stereo not given) | 1.61 µM (inactive) | 1.56 µM (inactive) | 0.714 µM (active) | 1.84 µM (inactive) | 1.57 µM (inactive) | 1.85 µM (inactive) | 1.68 µM (inactive) | 2.29 µM (inactive) | 0.409 µM (active) | 0.889 | 0.82 µM (active) | 1.52 µM (inactive) | 1.91 µM (inactive) | 1.8 µM (inactive) | 1.61 µM (inactive) | 2 µM (inactive) | 1.46 µM (inactive) | 1.56 µM (inactive) | 1.34 µM (inactive) | 1.65 µM (inactive)
NC(Cc1ccc(S(=O)(=O)O)cc1)C(=O)NC(Cc1ccc(S(=O)(=O)O)cc1)C(=O)O (stereo not given) | > 100 µM (inactive) | > 100 µM (inactive) | > 100 µM (inactive) | > 100 µM (inactive) | > 100 µM (inactive) | > 100 µM (inactive) | > 100 µM (inactive) | > 100 µM (inactive) | > 100 µM (inactive) | > 100 | > 100 µM (inactive) | > 100 µM (inactive) | > 100 µM (inactive) | > 100 µM (inactive) | > 100 µM (inactive) | > 100 µM (inactive) | > 100 µM (inactive) | > 100 µM (inactive) | > 100 µM (inactive) | > 100 µM (inactive)
Cc1cc(O)c2c(c1)CC(O)C1=C2C(=O)c2c(O)ccc(OC3CC(O)C(OC4CC(OC5CCC(O)C(C)O5)C(O)C(C)O4)C(C)O3)c2C1=O (stereo not given) | 1.58 µM (inactive) | 2.34 µM (inactive) | 1.39 µM (inactive) | 1.32 µM (inactive) | 1.73 µM (inactive) | 1.43 µM (inactive) | 1.72 µM (inactive) | 1.83 µM (inactive) | 0.305 µM (active) | 1.96 | 1.79 µM (inactive) | 0.662 µM (active) | 2.33 µM (inactive) | 1.59 µM (inactive) | 1.5 µM (inactive) | 0.789 µM (active) | 1.71 µM (inactive) | 1.47 µM (inactive) | 1.46 µM (inactive) | 2.17 µM (inactive)
Clc1cc(OC2C3CC4CC(C3)CC2C4)nc(Cl)n1 (stereo not given) | 17.7 µM (inactive) | 18 µM (inactive) | 18.3 µM (inactive) | 17 µM (inactive) | 16.1 µM (inactive) | 17.9 µM (inactive) | 19 µM (inactive) | 14.8 µM (inactive) | 16.9 µM (inactive) | 14 | 17.1 µM (inactive) | 18.1 µM (inactive) | 19.1 µM (inactive) | 25.9 µM (inactive) | 2.88 µM (inactive) | 14.9 µM (inactive) | 0.723 µM (active) | 10.6 µM (inactive) | 12.8 µM (inactive) | 30.7 µM (inactive)
O=C(CCN1CCCCC1)c1csc2ccccc12 | > 100 µM (inactive) | > 100 µM (inactive) | 20 µM (inactive) | > 100 µM (inactive) | > 100 µM (inactive) | > 100 µM (inactive) | > 100 µM (inactive) | > 100 µM (inactive) | 61.2 µM (inactive) | > 100 | > 100 µM (inactive) | > 100 µM (inactive) | > 100 µM (inactive) | > 100 µM (inactive) | > 100 µM (inactive) | > 100 µM (inactive) | > 100 µM (inactive) | > 100 µM (inactive) | > 100 µM (inactive) | 94.6 µM (inactive)
CCN(CC)CCNC(=O)c1cn2c(ccc3sc4ccccc4c(=O)c32)n1 | 3.64 µM (inactive) | 10.5 µM (inactive) | 5.87 µM (inactive) | 13.7 µM (inactive) | 9.33 µM (inactive) | 7.26 µM (inactive) | 12 µM (inactive) | 11.2 µM (inactive) | 0.502 µM (active) | 5.21 | 7.89 µM (inactive) | 12.8 µM (inactive) | 15.3 µM (inactive) | 5.96 µM (inactive) | 7.03 µM (inactive) | 11.6 µM (inactive) | 10 µM (inactive) | 5.38 µM (inactive) | 8.22 µM (inactive) | 14.4 µM (inactive)
O=C(c1cc(Cl)ccc1Cl)N1CCN(C(=O)c2cc(Cl)ccc2Cl)CC1 | 94.4 µM (inactive) | 91 µM (inactive) | > 100 µM (inactive) | > 100 µM (inactive) | > 100 µM (inactive) | 55.6 µM (inactive) | > 100 µM (inactive) | > 100 µM (inactive) | > 100 µM (inactive) | > 100 | > 100 µM (inactive) | > 100 µM (inactive) | 27 µM (inactive) | 38.8 µM (inactive) | > 100 µM (inactive) | > 100 µM (inactive) | 97.9 µM (inactive) | > 100 µM (inactive) | 67.1 µM (inactive) | > 100 µM (inactive)
Cc1c2oc3c(C)ccc(C(=O)NC4C(=O)NC(C(C)C)C(=O)N5CC(=O)CC5C(=O)N(C)CC(=O)N(C)C(C(C)C)C(=O)OC4C)c3nc-2c(C(=O)NC2C(=O)NC(C(C)C)C(=O)N3CC(=O)CC3C(=O)N(C)CC(=O)N(C)C(C(C)C)C(=O)OC2C)c(N)c1=O (stereo not given) (I: TV[X48][Sar][NMeV] / II: TV[X48][Sar][NMeV]; ester I:1-I:C, II:1-II:C; linker I:N-II:N via Actinocin(9to1); configuration not given here) | > 1 µM (active) | > 1 µM (active) | 0.0277 µM (active) | > 1 µM (active) | > 1 µM (active) | > 1 µM (active) | > 1 µM (active) | > 1 µM (active) | > 1 µM (active) | > 1 | > 1 µM (active) | > 1 µM (active) | > 1 µM (active) | > 1 µM (active) | > 1 µM (active) | > 1 µM (active) | > 1 µM (active) | > 1 µM (active) | 0.476 µM (active) | > 1 µM (active)
